Results published in patent US9403776B2, “Aryl- and heteroaryl-substituted tetrahydrobenzazepines and use thereof to block reuptake of norepinephrine, dopamine, and serotonin” (Albany Molecular Research, Inc., priority 2005, dated 2016).
Where a name gives a salt, the structure may show the parent alone.

Compound `CN1CCC(c2ccccc2)c2ccc(C#N)cc2C1` (centres unmarked) (as salt: maleate) has a melting point of 67 to 69 °C. For `Cc1ccc(-c2ccc3c(c2)CN(C)CCC3c2ccc(Cl)cc2)nn1` (single isomer, unassigned; (+)) (as salt: hydrochloride) [Example 39, (+)-5-(4-chlorophenyl)-2-methyl-8-(6-methyl-pyridazin-3-yl)-2,3,4,5-tetrahydro-1H-benzo[c]azepine], the melting point was 179 to 181 °C (dec.). With `COc1ccc2c(c1)CN(C)CCC2c1ccc(F)c(Cl)c1` (racemic) (as salt: hydrochloride) [Example 11, (+/−)-5-(3-chloro-4-fluorophenyl)-8-methoxy-2-methyl-2,3,4,5-tetrahydro-1H-benzo[c]azepine] the melting point was 167 to 169 °C. With `COc1ccc2c(c1)CN(C)CCC2c1ccc(F)c(F)c1` (racemic) (as salt: hydrochloride) [Example 9, (+/−)-5-(3,4-difluorophenyl)-8-methoxy-2-methyl-2,3,4,5-tetrahydro-1H-benzo[c]azepine] the melting point was 139 to 141 °C. With `Cc1noc(C)c1-c1ccc2c(c1)CN(C)CCC2c1ccc(Cl)cc1` (single isomer, unassigned; (+)) (as salt: maleate) [Example 43, (+)-5-(4-chlorophenyl)-8-(3,5-dimethylisoxazol-4-yl)-2-methyl-2,3,4,5-tetrahydro-1H-benzo[c]azepine] the melting point was 196 to 198 °C. For `Cc1ccc(-c2ccc3c(c2)CN(C)CCC3c2ccccc2)nn1` (single isomer, unassigned; (+)) (as salt: hydrochloride) [Example 24, (+)-2-methyl-8-(6-methyl-pyridazin-3-yl)-5-phenyl-2,3,4,5-tetrahydro-1H-benzo[c]azepine], the melting point was 168 to 170 °C. Work on `CN1CCC(c2ccccc2)c2ccc(-c3ncccn3)cc2C1` (single isomer, unassigned; (+)) (as salt: maleate) [Example 27, (+)-2-methyl-5-phenyl-8-(pyrimidin-2-yl)-2,3,4,5-tetrahydro-1H-benzo[c]azepine] yielded a melting point of 76 to 78 °C. In the case of `CN1CCC(c2ccc3sccc3c2)c2ccc(-c3cncnc3)cc2C1.O=C(O)/C=C\C(=O)O` (single isomer, unassigned; (+)) [Example 104, (+)-5-(benzo[b]thiophen-5-yl)-2-methyl-8-(pyrimidin-5-yl)-2,3,4,5-tetrahydro-1H-benzo[c]azepine, maleate salt], the melting point is reported as 111 to 117 °C. Compound `COc1ccc2c(c1)CN(C)CCC2c1ccc(Cl)cc1` (single isomer, unassigned; (-)) (as salt: hydrochloride) [Example 8 (−), (−)-5-(4-chlorophenyl)-8-methoxy-2-methyl-2,3,4,5-tetrahydro-1H-benzo[c]azepine] has a melting point of 210 to 211 °C. Work on `CN1CCC(c2ccccc2)c2ccc(-c3cnccn3)cc2C1` (single isomer, unassigned; (+)) (as salt: maleate) [Example 29, (+)-2-methyl-5-phenyl-8-(pyrazin-2-yl)-2,3,4,5-tetrahydro-1H-benzo[c]azepine] yielded a melting point of 67 to 69 °C. For `CN1CCC(c2ccccc2)c2ccc(-c3cncnc3)cc2C1` (single isomer, unassigned; (+)) (as salt: maleate) [Example 28, (+)-2-methyl-5-phenyl-8-(pyrimidin-5-yl)-2,3,4,5-tetrahydro-1H-benzo[c]azepine], the melting point was 93 to 96 °C. In the case of `CN1CCC(c2ccc(Cl)cc2)c2ccc(-c3ccc(N(C)C)nn3)cc2C1` (single isomer, unassigned; (-)) (as salt: maleate) [Example 46, (−)-{6-[5-(4-chlorophenyl)-2-methyl-2,3,4,5-tetrahydro-1H-benzo[c]azepine-8-yl]-pyridazin-3-yl}-dimethylamine], the melting point is reported as 109 to 110 °C. `COc1ccc2c(c1)CN(C)CCC2c1ccc(Cl)cc1` (racemic) (as salt: hydrochloride) [Example 7, (+/−)-5-(4-chlorophenyl)-8-methoxy-2-methyl-2,3,4,5-tetrahydro-1H-benzo[c]azepine] showed a melting point of 152 to 153 °C. For `c1ccc(CN2CCC(c3ccccc3)c3ccc(N4CCOCC4)cc3C2)cc1` (single isomer, unassigned; (+)) (as salt: maleate) [Example 61, (+)-4-(2-benzyl-5-phenyl-2,3,4,5-tetrahydro-1H-benzo[c]azepin-8-yl)morpholine], the melting point was 108 to 110 °C. Compound `CN1CCC(c2ccc(Cl)cc2)c2ccc(N3CCOCC3)cc2C1` (single isomer, unassigned; (-)) (as salt: maleate) [Example 47, (−)-4-(5-(4-chlorophenyl)-2-methyl-2,3,4,5-tetrahydro-1H-benzo[c]azepin-8-yl)morpholine] has a melting point of 99 to 100 °C. Work on `COc1ccc2c(c1)CN(C)CCC2c1cc(F)c(C#N)c(F)c1` (centres unmarked) (as salt: citrate) yielded a melting point of 82 to 86 °C. For `COc1ccc(C2CCN(C)Cc3cc(OC)ccc32)cc1` (racemic) (as salt: hydrochloride) [Example 5, (+/−)-5-(4-methoxyphenyl)-8-methoxy-2-methyl-2,3,4,5-tetrahydro-1H-benzo[c]azepine], the melting point was 165 to 166 °C. `CN1CCC(c2ccc3sccc3c2)c2ccc(-c3cccnn3)cc2C1.O=C(O)/C=C\C(=O)O` (single isomer, unassigned; (+)) [Example 107, (+)-5-(benzo[b]thiophen-5-yl)-2-methyl-8-(pyridazin-3-yl)-2,3,4,5-tetrahydro-1H-benzo[c]azepine, maleate salt] gave a melting point of 117 to 121 °C. `Cc1ccc(-c2ccc3c(c2)CN(C)CCC3c2ccc(C#N)c(F)c2)nn1` (single isomer, unassigned; (+)) (as salt: tartrate) [Example 92 (+), (+)-2-fluoro-4-(2-methyl-8-(6-methylpyridazin-3-yl)-2,3,4,5-tetrahydro-1H-benzo[c]azepin-5-yl)benzonitrile] showed a melting point of 112 to 115 °C. With `CN1CCC(c2ccc(Cl)cc2)c2ccc(-c3cccnn3)cc2C1` (single isomer, unassigned; (+)) (as salt: hydrochloride) [Example 40, (+)-5-(4-chlorophenyl)-2-methyl-8-pyridazin-3-yl-2,3,4,5-tetrahydro-1H-benzo[c]azepine] the melting point was 187 to 189 °C (dec.). In the case of `CN1CCC(c2ccc(Cl)cc2)c2ccc(N3CCOCC3)cc2C1` (single isomer, unassigned; (+)) (as salt: maleate) [Example 48, (+)-5-(4-chlorophenyl)-2-methyl-8-morpholin-4-yl-2,3,4,5-tetrahydro-1H-benzo[c]azepine], the melting point is reported as 94 to 96 °C. `Cc1ccc2c(c1)CN(C)CCC2c1ccc(F)cc1` (single isomer, unassigned; (+)) (as salt: hydrochloride) [Example 16, (+)-5-(4-fluorophenyl)-2,8-dimethyl-2,3,4,5-tetrahydro-1H-benzo[c]azepine] gave a melting point of 243 to 244 °C. For `Cc1noc(C)c1-c1ccc2c(c1)CN(C)CCC2c1ccc(Cl)cc1` (single isomer, unassigned; (-)) (as salt: maleate) [Example 42, (−)-5-(4-chlorophenyl)-8-(3,5-dimethylisoxazol-4-yl)-2-methyl-2,3,4,5-tetrahydro-1H-benzo[c]azepine], the melting point was 66 to 68 °C. `CN1CCC(c2ccccc2)c2ccc(-c3ccncc3)cc2C1` (single isomer, unassigned; (+)) (as salt: maleate) [Example 31, (+)-2-methyl-5-phenyl-8-(pyridin-4-yl)-2,3,4,5-tetrahydro-1H-benzo[c]azepine] gave a melting point of 91 to 93 °C. With `FCCN1CCC(c2ccccc2)c2ccc(N3CCOCC3)cc2C1` (single isomer, unassigned; (+)) (as salt: tartrate) [Example 60, (+)-4-(2-(2-fluoroethyl)-5-phenyl-2,3,4,5-tetrahydro-1H-benzo[c]azepin-8-yl)morpholine] the melting point was 102 to 105 °C. In the case of `CN1CCC(c2ccccc2)c2ccc(-c3cccc(N)n3)cc2C1` (single isomer, unassigned; (+)) (as salt: maleate) [Example 32, (+)-6-(2-methyl-5-phenyl-2,3,4,5-tetrahydro-1H-benzo[c]azepin-8-yl)pyridine-2-amine], the melting point is reported as 112 to 114 °C. `CN1CCC(c2ccc(F)cc2)c2ccc(O)cc2C1` (single isomer, unassigned; (-)) (as salt: hydrochloride) [Example 14, (−)-5-(4-fluorophenyl)-2-methyl-2,3,4,5-tetrahydro-1H-benzo[c]azepin-8-ol] showed a melting point of 159 to 161 °C. `CN1CCC(c2ccc3ccccc3c2)c2ccc(-c3cccnn3)cc2C1` (single isomer, unassigned; (+)) (as salt: maleate) [Example 50, (+)-2-methyl-5-naphthalen-2-yl-8-pyridazin-3-yl-2,3,4,5-tetrahydro-1H-benzo[c]azepine] showed a melting point of 99 to 102 °C. With `CN1CCC(c2ccc(Cl)cc2)c2ccc(-c3cnccn3)cc2C1` (single isomer, unassigned; (-)) (as salt: maleate) [Example 41 (−), (−)-5-(4-chlorophenyl)-2-methyl-8-(pyrazin-2-yl)-2,3,4,5-tetrahydro-1H-benzo[c]azepine] the melting point was 82 to 84 °C. With `CN1CCC(c2ccc3sccc3c2)c2ccc(-c3cnccn3)cc2C1.O=C(O)/C=C\C(=O)O` (single isomer, unassigned; (+)) [Example 105, (+)-5-(benzo[b]thiophen-5-yl)-2-methyl-8-(pyrazin-2-yl)-2,3,4,5-tetrahydro-1H-benzo[c]azepine, maleate salt] the melting point was 102 to 108 °C. `COc1ccc2c(c1)CN(C)CCC2c1ccc2sccc2c1` (single isomer, unassigned; (+)) (as salt: maleate) [Example 52 (+), (+)-5-benzo[b]thiophen-5-yl-8-methoxy-2-methyl-2,3,4,5-tetrahydro-1H-benzo[c]azepine] showed a melting point of 92 to 96 °C. In the case of `CN1CCC(c2ccccc2)c2ccc(CN3CCOCC3)cc2C1` (single isomer, unassigned; (+)) (as salt: tartrate) [Example 22, (+)-4-((2-methyl-5-phenyl-2,3,4,5-tetrahydro-1H-benzo[c]azepin-8-yl)methyl)morpholine], the melting point is reported as 124 to 127 °C.
